Our source for the EC50 values is PubChem BioAssay AID2423 (Broad Institute, 2010).

Results filed as inconclusive are left out. Activity calls are given as the source filed them. How the calls were made is not given here.

The subject of the experiment is C. albicans CaCi-8 + fluconazole, Alamar Blue growth, 48 h. Nature of the experiment: resistant C. albicans growth inhibition with fluconazole, dose response, CaCi-8 strain, Alamar Blue fluorescence (AID 2423).
Consider `CCOC(=O)c1c(-c2ccccc2Cl)cn2ccccc12`, for which the EC50 is 2120 nM.

Regarding `O=C(/C=C/c1cccc(Cl)c1)c1nc2ccccc2[nH]1`, the EC50 was 2580 nM.

Consider `Nc1nnnn1/N=C/c1cccc(Oc2ccccc2)c1`, for which the EC50 was 3450 nM.

As to `O=C(CNc1ccc2ccccc2c1)N/N=C/c1ccc([N+](=O)[O-])o1`, the EC50 was 1280 nM.

For `CCOc1ccc2c(c1)OC(c1ccc(C)cc1)(C(F)(F)F)NC2=O` (stereo unspecified), the EC50 is > 16000 nM (inactive).

`COc1ccc(-c2nnc(NC(=O)c3ccc(S(=O)(=O)N4CCCc5ccccc54)cc3)o2)cc1`: the half-maximal effective concentration (EC50) was 193 nM.

In the case of `O=C(NC(c1ccc(Cl)cc1)c1cc(Cl)c2cccnc2c1O)c1cccnc1` (stereo unspecified), the EC50 is 329 nM.

As for `Cc1ccc(NC(=O)CNC(=O)c2ccc(Oc3ccccc3)cc2)nc1`, the EC50 was 440 nM.

Consider `CCC(C)OC(=O)C[N+](C)(C)CCOC1CC2CCC1(C)C2(C)C` (stereo unspecified), for which the EC50 is 6590 nM.

With `O=C(NNC1=C(C(=O)C(F)(F)F)CCC1)c1cccc(Cl)c1`, the concentration for a half-maximal effect (EC50) is 1960 nM.

`Cc1c(Cc2ccccc2)c(=O)oc2c(O)c(O)ccc12`: the half-maximal effective concentration (EC50) was 2750 nM.

For the molecule `Cc1ccc2ccc3ccc(C)nc3c2n1`, the EC50 is 999 nM.

Take `CCCc1cc(=O)[nH]c(SCc2csc(-c3ccccc3)n2)n1`: the concentration giving a half-maximal response (EC50) is 1390 nM.

Consider `C(#Cc1ccccc1)C[N+]1(CC#Cc2cccc3ccccc23)CCCC1`, for which the half-maximal effective concentration (EC50) was 5640 nM.

On to `CCCCOc1ccc(-c2cc(C(=O)NNC(=S)NCC)c3ccccc3n2)cc1`, for which the 50% effective concentration (EC50) was 1060 nM.

For the molecule `COc1ccc(C2C(C#N)=C(N)Oc3c2ccc2cccnc32)cc1OC` (stereo unspecified), the EC50 was 952 nM.

As for `Cc1ccc(NC(=O)c2sc3nc(N)c(C#N)cc3c2N)cc1`, the concentration for a half-maximal effect (EC50) was 625 nM.

On to `O=[N+]([O-])c1ccc(N2CCN(Cc3ccc([N+](=O)[O-])o3)CC2)cc1`, for which the EC50 is 1650 nM.

In the case of `CCOc1ccc2nc(NC(=S)N(C)C)sc2c1`, the half-maximal effective concentration (EC50) was 1220 nM.

Consider `CCCCn1c(CN2CCN(C(=O)OCC)CC2)nc2c1c(=O)n(C)c(=O)n2C`, for which the EC50 was > 15000 nM (inactive).

Regarding `O=C(N/N=C/c1ccc(Cl)cc1Cl)Nc1ccccc1`, the EC50 was > 16000 nM (inactive).

Regarding `Cc1cc(C(=O)N/N=C/c2cc(Cl)cc([N+](=O)[O-])c2O)c2ccccc2n1`, the concentration for a half-maximal effect (EC50) is 2790 nM.

Consider `Nc1c2c(nc3sc4c(c13)CCCCC4)CCCCC2`, for which the concentration for a half-maximal effect (EC50) is 5550 nM.

On to `CC(=O)N1CCN(c2ccc(NC(=O)c3ccc(C(C)(C)C)cc3)cc2)CC1`, for which the EC50 was 11900 nM.

`CCCOc1cccc(C(=O)Nc2cccnc2)c1`: the EC50 was 2200 nM.

In the case of `COc1ccc(NC(=O)c2cc([N+](=O)[O-])ccc2O)cc1`, the EC50 is 3920 nM.

On to `C[C@H]1CCC/C=C/C2C[C@H](O)CC2[C@H](O)/C=C/C(=O)O1` (stereo partly specified), for which the EC50 was 2060 nM.

As for `C/C(=N\NC(=O)c1cccc(N/N=C(\C)c2cc(O)ccc2O)c1)c1cc(O)ccc1O`, the EC50 was > 15000 nM (inactive).

As for `COc1ccc(-n2nc(C(=O)NCC(=O)N3CCN(c4ccccc4)CC3)c3ccccc3c2=O)c(OC)c1`, the EC50 was 698 nM.

In the case of `COCCCN1C(=O)C(=O)/C(=C(/O)c2ccc(OCC(C)C)cc2C)C1c1cccnc1` (stereo unspecified), the EC50 was > 15000 nM (inactive).

On to `CCOC(=O)C1CCN(CCC(=O)Nc2ccc(F)cc2)CC1`, for which the EC50 is > 15000 nM (inactive).

Take `N#C/C(=N\Nc1cccc([N+](=O)[O-])c1)C(=O)c1ccc(Br)cc1`: the concentration giving a half-maximal response (EC50) was 5560 nM.

For `COc1cc2ccccc2cc1C(=O)NNC(=O)c1ccccc1O`, the EC50 is 8440 nM.

With `CCOc1ccc(NC(=O)c2cn(-c3ccc(OCC)cc3)c(=O)c3cc(OC)c(OC)cc23)cc1`, the concentration for a half-maximal effect (EC50) is 485 nM.

Take `CCc1cc(=S)n2c([nH]c3ccccc32)c1C#N`: the 50% effective concentration (EC50) is 513 nM.

With `O=c1[nH]c(-c2ccccn2)nc(C(F)(F)F)c1Br`, the EC50 is 495 nM.

Regarding `Oc1ccc(N=Nc2nccs2)c(O)c1`, the EC50 was 7250 nM.

On to `O=c1ccc(N=Nc2ccccc2)ccc1O`, for which the EC50 is 879 nM.

With `CCOc1ccc(NC(=O)NNC(=O)c2ccc3ccccc3c2O)cc1`, the EC50 is 2460 nM.

In the case of `CC(OC(=O)c1oc2ccccc2c1COc1ccccc1)C(N)=O` (stereo unspecified), the EC50 is > 16000 nM (inactive).

`CN1CCN(CC(=O)N2CCn3c4c(c5cc(C6CCCCC6)ccc53)CCCC42)CC1` (stereo unspecified): the concentration for a half-maximal effect (EC50) was 4190 nM.

Consider `Cc1ccc(OCC(=O)NNC(=S)NC(=O)C2CC2)c(C)c1`, for which the EC50 was 830 nM.

In the case of `Cc1c(CCOC(=O)CC23CC4CC(CC(C4)C2)C3)sc[n+]1Cc1ccccc1`, the EC50 is 10600 nM.

Turning to `Cc1nc2ccc(NC(=O)COc3ccccc3)cc2s1`, the EC50 was 5370 nM.

In the case of `O=C(Nc1nnc(C2COc3ccccc3O2)o1)c1ccc(F)cc1` (stereo unspecified), the 50% effective concentration (EC50) is 910 nM.

As to `O=C(CN1C(=O)/C(=C/c2ccccc2)SC1=S)NNC(=O)c1ccccc1O`, the EC50 is > 16000 nM (inactive).

On to `COc1ccc(CCC(=O)N2CC(C)OC(C)C2)cc1` (stereo unspecified), for which the EC50 is > 15000 nM (inactive).

On to `Cc1nnc(N/N=C/c2ccccn2)[nH]c1=O`, for which the half-maximal effective concentration (EC50) was 2250 nM.

Turning to `Nc1nsc2ccccc12`, the EC50 was > 15000 nM (inactive).

On to `CCOC(=O)c1ccc(Oc2nc(NC(C)(C)C)nc(N(C)C)n2)cc1`, for which the EC50 was 13300 nM.

On to `CCN(CC)c1ccc2nc3ccccc3[n+](CC)c2c1`, for which the EC50 is 842 nM.

As for `CCCNC(=O)c1ccc2c(=O)c(O)c(-c3ccc(OC)cc3)[nH]c2c1`, the concentration for a half-maximal effect (EC50) is 2470 nM.

As for `NC(=O)c1c(NC(=O)c2ccccc2F)sc2c1CCCC2`, the EC50 was 2010 nM.

Turning to `O=C(c1cc2c(s1)-c1ccccc1OC2)N1CCC2(CC1)OCCO2`, the EC50 is 2000 nM.

Turning to `CSc1cnc2c(N)nc(N(C)C)nc2n1`, the concentration giving a half-maximal response (EC50) was 12400 nM.

Take `CCC(C)(C)c1ccc(OCCCC[n+]2ccc(C)cc2)c(C(C)(C)CC)c1`: the EC50 was > 16000 nM (inactive).

Regarding `CCCCN(C)S(=O)(=O)c1ccc(C(=O)Nc2nnc(-c3ccco3)o2)cc1`, the EC50 is > 16000 nM (inactive).

In the case of `COc1ccnc(N2CCN(c3ccccc3)CC2)c1C#N`, the EC50 is 859 nM.

With `COc1ccc(-c2cc(C(=O)NNC(=S)NC(=O)c3c(-c4ccccc4)noc3C)[nH]n2)cc1`, the EC50 was 2460 nM.

With `Cc1c(CCOC(=O)CC23CC4CC(CC(C)(C4)C2)C3)sc[n+]1Cc1ccc([N+](=O)[O-])cc1`, the EC50 is 11900 nM.

On to `CC(=O)N(Cc1ccc(F)cc1)C1=C(NCCc2ccccc2)C(=O)c2ccccc2C1=O`, for which the EC50 is 330 nM.

As to `O=[N+]([O-])c1cc(S(=O)(=O)C(F)(F)F)ccc1Sc1nc2ccccc2s1`, the concentration giving a half-maximal response (EC50) was 3200 nM.

On to `CCn1c(NN=O)nc2ccccc21`, for which the concentration for a half-maximal effect (EC50) is 7380 nM.

In the case of `CCOc1cccc(-c2c(C(=O)N/N=C(\C)c3ccccn3)nnn2-c2nonc2N)c1`, the EC50 is 15600 nM.

Turning to `CCN(CC)c1ccc(/C=N/NC(=O)c2ccc3nc[nH]c3c2)c(O)c1`, the EC50 is 1160 nM.

Take `COc1ccccc1/C=C1\SC(=S)N(NS(=O)(=O)c2ccccc2)C1=O`: the concentration giving a half-maximal response (EC50) is 1110 nM.

In the case of `O=S(=O)(Nc1cccc2cccnc12)c1ccc(S(=O)(=O)N2CCCC2)cc1`, the half-maximal effective concentration (EC50) is 5620 nM.

With `CON/C=C(\C=Nc1ccc(Cl)cc1Cl)c1ncc(C(F)(F)F)cc1Cl`, the EC50 was > 16000 nM (inactive).

Turning to `COC(=O)c1c(C(=O)OC)c(-c2ccc(Cl)c(Cl)c2)n2c1CCC2`, the EC50 was 8980 nM.

In the case of `Cn1c(-c2c(N)n(CCc3ccccc3)c3nc4ccccc4nc23)nc2ccccc21`, the concentration giving a half-maximal response (EC50) is 6180 nM.

Turning to `COCCn1c(=O)[nH]c(=O)c2cc(C(=O)c3cc(Cl)ccc3O)cnc21`, the 50% effective concentration (EC50) is 1280 nM.

For the molecule `O=C(CCC(=O)Nc1ccccc1Cl)NNS(=O)(=O)c1ccc(Cl)cc1`, the EC50 was > 16000 nM (inactive).

Turning to `C/C(=N/NC(=O)c1cc(O)c(O)c(O)c1)c1ccc([N+](=O)[O-])cc1`, the EC50 was 4810 nM.

In the case of `Cc1cc(N2C(=O)C(O)=C(C(=O)c3cc4ccccc4o3)C2c2cccs2)no1` (stereo unspecified), the concentration giving a half-maximal response (EC50) is 4080 nM.

On to `CC(=O)Nc1ccc(NC(=O)CSc2ccc3nnc(CCNS(=O)(=O)c4ccc(C)cc4)n3n2)cc1`, for which the EC50 was > 16000 nM (inactive).

As to `Cc1[nH]n(C(N)=S)c(=O)c1N=Nc1ccc(S(=O)(=O)N2CCCCCC2)cc1`, the EC50 was 9480 nM.

As for `O=C(c1ccc(C(=O)N2CCN(c3ccccc3F)CC2)nc1)N1CCN(c2ccccc2F)CC1`, the EC50 is > 16000 nM (inactive).

As for `Cc1cc([N+](=O)[O-])ccc1-c1ccc(C2Nc3ccccc3C(=O)N2O)o1` (stereo unspecified), the half-maximal effective concentration (EC50) is 2440 nM.

As to `O=[N+]([O-])c1ccc(O)c(/C=N/NC(=S)Nc2ccc(Cl)cc2Cl)c1`, the concentration giving a half-maximal response (EC50) was 1870 nM.

As to `CCOc1ccccc1NC(=O)C(=O)N/N=C/c1cc(Br)ccc1O`, the EC50 was 1380 nM.

In the case of `O=C(c1ccc(Cl)cc1)N1CCN(c2ccnc3cc(Cl)ccc23)CC1`, the half-maximal effective concentration (EC50) was 863 nM.

`Cc1cc(NC(=O)c2cccc(Oc3ccccc3)c2)n[nH]1`: the concentration giving a half-maximal response (EC50) was 1570 nM.

`S=c1[nH]nc(-c2ccccc2)n1/N=C/c1cccs1`: the EC50 is 6130 nM.

In the case of `CCN1/C(=C/C(C)=C/c2sc3ccccc3[n+]2CC)Sc2ccccc21`, the EC50 is less than 120 nM.

On to `COc1ccc(-c2cc(-c3c(O)c(OC)c4occc4c3OC)[nH]n2)cc1`, for which the EC50 was > 15000 nM (inactive).

On to `O=C(Oc1cc2oc(=O)c3c(c2cc1Cl)CCCC3)c1cccs1`, for which the half-maximal effective concentration (EC50) is 653 nM.

`O=C(N/N=C/c1cc(Br)c(Br)o1)c1ccc2c(c1)OCCO2`: the EC50 is 643 nM.

`Nc1nonc1-n1nnc(C(=O)N/N=C/c2cc(Cl)ccc2O)c1CN1CCCCCC1`: the EC50 is 1820 nM.

Regarding `O=C(NCC(=O)N(CC1CCCO1)C(C(=O)NC1CCCCC1)c1ccccc1)c1ccco1` (stereo unspecified), the EC50 was > 15000 nM (inactive).

As for `COc1ccc(-c2cc(-c3c(O)c(OC)c4occc4c3OC)[nH]n2)cc1OC`, the EC50 was > 16000 nM (inactive).

As to `Oc1ccc(N=Nc2ccccc2C(F)(F)F)c2cccnc12`, the EC50 is 1080 nM.

For the molecule `COC(CN(C)C(=O)c1ccc2c(c1)NC(=O)c1ccccc1S2)OC`, the EC50 is > 15000 nM (inactive).

Consider `CC(=O)Oc1c(-c2ccc(Br)o2)oc2ccccc2c1=O`, for which the concentration for a half-maximal effect (EC50) was 4200 nM.

Turning to `COc1ccc(C(=O)NNC(=S)NC(=O)c2ccccc2)cc1`, the EC50 is 2650 nM.

In the case of `Brc1ccc(-c2nnc3sc(CN4CCN(c5ccccc5)CC4)cn23)cc1`, the EC50 was 288 nM.

With `O=C(NC(=S)NNC(=O)c1cc2ccccc2cc1O)c1ccco1`, the concentration for a half-maximal effect (EC50) was 1030 nM.
